In US11845752B2, “Substituted imidazo[1,5-a]pyrazines for the treatment of hepatitis B” (ALIGOS THERAPEUTICS, INC., priority 2020, dated 2023):
Where two headings read alike, the source gives them in different places.

System: HBV
Assay: HBV-DNA antiviral assay using HepG2.117 cells (intracellular HBV DNA by qPCR)
Type: cell-based, HBV genotype D
Settings: HBV DNA inhibition, 3 days incubation, read-out: EC50
In short: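 Read-outs: cell-lysate HBV DNA copies by qPCR (interpolated from gBlock standard) and parallel cellular ATP luminescence for CC50, both normalised to 2% DMSO controls and fitted by non-linear regression. HepG2.117 Tet-off genotype D HBV cells, induced by doxycycline removal, exposed 3 days to 4-fold serial dilutions.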

[1] = Hepatitis B virus, HepG2.117, 72 h

COc1cnn(-c2ccccc2CNC(=O)c2c3n(c(=O)n2-c2ccc(OC4CC4)cc2)CC(C)N(C(=O)c2ccc(Br)c(Cl)c2)C3)c1 (single isomer, unassigned) [Compound 17b, 7-(4-bromo-3-chloro-benzoyl)-2-[4-(cyclopropoxy)phenyl]-N-[[2-(4-methoxypyrazol-1-yl)phenyl]methyl]-6-methyl-3-oxo-6,8-dihydro-5H-imidazo[1,5-a]pyrazine-1-carboxamide]
EC50: < 50 nM

CC1Cn2c(c(C(=O)NCc3ccccc3-c3cn(C)cn3)n(-c3ccc(OC4CC4)cc3)c2=O)CN1C(=O)c1ccc(Br)c(Cl)c1 (single isomer, unassigned) [Compound 18a, 7-(4-bromo-3-chloro-benzoyl)-2-[4-(cyclopropoxy)phenyl]-6-methyl-N-[[2-(1-methylimidazol-4-yl)phenyl]methyl]-3-oxo-6,8-dihydro-5H-imidazo[1,5-a]pyrazine-1-carboxamide]
EC50 [1]: 50 to 500 nM

CC1Cn2c(c(C(=O)NCc3ccccc3-c3cn(C)cn3)n(-c3ccc(OC4CC4)cc3)c2=O)CN1C(=O)c1ccc(Br)c(Cl)c1 (single isomer, unassigned) [Compound 18b, 7-(4-bromo-3-chloro-benzoyl)-2-[4-(cyclopropoxy)phenyl]-6-methyl-N-[[2-(1-methylimidazol-4-yl)phenyl]methyl]-3-oxo-6,8-dihydro-5H-imidazo[1,5-a]pyrazine-1-carboxamide]
EC50: < 50 nM

CC1Cn2c(c(C(=O)NCc3ccccc3-n3cc(N)cn3)n(-c3ccc(OC4CC4)cc3)c2=O)CN1C(=O)c1ccc(Br)c(Cl)c1 (single isomer, unassigned) [Compound 19a]
EC50: 500 to 5000 nM

CC1Cn2c(c(C(=O)NCc3ccccc3-n3cc(N)cn3)n(-c3ccc(OC4CC4)cc3)c2=O)CN1C(=O)c1ccc(Br)c(Cl)c1 (single isomer, unassigned) [Compound 19b]
EC50: 50 to 500 nM

C#Cc1cc(C(=O)N2Cc3c(C(=O)NCc4ccccc4-c4ccncn4)n(-c4ccc(OC5CC5)cc4)c(=O)n3CC2C)ccc1Br (single isomer, unassigned) [Compound 20a]
EC50: 500 to 5000 nM

C#Cc1cc(C(=O)N2Cc3c(C(=O)NCc4ccccc4-c4ccncn4)n(-c4ccc(OC5CC5)cc4)c(=O)n3CC2C)ccc1Br (single isomer, unassigned) [Compound 20b]
EC50: 50 to 500 nM

CC1Cn2c(c(C(=O)NCc3ccccc3-c3ncccn3)n(-c3ccc(N4CCN(C)CC4)cc3)c2=O)CN1C(=O)c1ccc(Br)c(Cl)c1 (single isomer, unassigned) [Compound 21a]
EC50 [1]: < 50 nM

CC1Cn2c(c(C(=O)NCc3ccccc3-c3ncccn3)n(-c3ccc(N4CCN(C)CC4)cc3)c2=O)CN1C(=O)c1ccc(Br)c(Cl)c1 (single isomer, unassigned) [Compound 21b]
EC50: 50 to 500 nM

CC1Cn2c(c(C(=O)NCc3ccccc3-c3ccn(C)n3)n(-c3ccc(OC4CC4)cc3)c2=O)CN1C(=O)c1ccc(Br)c(Cl)c1 (single isomer, unassigned) [Compound 22a]
EC50 [1]: 50 to 500 nM

CC1Cn2c(c(C(=O)NCc3ccccc3-c3ccn(C)n3)n(-c3ccc(OC4CC4)cc3)c2=O)CN1C(=O)c1ccc(Br)c(Cl)c1 (single isomer, unassigned) [Compound 22b]
EC50: < 50 nM

CC1Cn2c(c(C(=O)NCc3ccccc3-c3cccc(N)n3)n(-c3ccc(OC4CC4)cc3)c2=O)CN1C(=O)c1ccc(Br)c(Cl)c1 (single isomer, unassigned) [Compound 23a]
EC50 [1]: 50 to 500 nM

CC1Cn2c(c(C(=O)NCc3ccccc3-c3cccc(N)n3)n(-c3ccc(OC4CC4)cc3)c2=O)CN1C(=O)c1ccc(Br)c(Cl)c1 (single isomer, unassigned) [Compound 23b]
EC50: < 50 nM

CC1Cn2c(c(C(=O)NCc3c(F)cccc3-n3cccn3)n(-c3ccc(OC4CC4)cc3)c2=O)CN1C(=O)c1ccc(Br)c(Cl)c1 (single isomer, unassigned) [Compound 24a]
EC50 [1]: 50 to 500 nM

CC1Cn2c(c(C(=O)NCc3c(F)cccc3-n3cccn3)n(-c3ccc(OC4CC4)cc3)c2=O)CN1C(=O)c1ccc(Br)c(Cl)c1 (single isomer, unassigned) [Compound 24b]
EC50: < 50 nM

CC1Cn2c(c(C(=O)NCc3c(F)cccc3-n3cccn3)n(-c3ccc(OC4CC4)cc3)c2=O)CN1C(=O)c1ccc(Br)c(C(F)(F)F)c1 (single isomer, unassigned) [Compound 25a]
EC50 [1]: 50 to 500 nM

CC1Cn2c(c(C(=O)NCc3c(F)cccc3-n3cccn3)n(-c3ccc(OC4CC4)cc3)c2=O)CN1C(=O)c1ccc(Br)c(C(F)(F)F)c1 (single isomer, unassigned) [Compound 25b]
EC50: < 50 nM

CNc1ccnc(-c2ccccc2CNC(=O)c2c3n(c(=O)n2-c2ccc(OC4CC4)cc2)CC(C)N(C(=O)c2ccc(Br)c(Cl)c2)C3)n1 (single isomer, unassigned) [Compound 26a]
EC50 [1]: < 50 nM

CC1Cn2c(c(C(=O)NCc3ccccc3-c3cccc(N)n3)n(-c3ccc(OC4CC4)cc3)c2=O)CN1C(=O)c1ccc(Br)c(C(F)(F)F)c1 (single isomer, unassigned) [Compound 27a]
EC50 [1]: < 50 nM

CC1Cn2c(c(C(=O)NCc3ccccc3-c3cccc(N)n3)n(-c3ccc(OC4CC4)cc3)c2=O)CN1C(=O)c1ccc(Br)c(C(F)(F)F)c1 (single isomer, unassigned) [Compound 27b]
EC50: < 50 nM

CC1Cn2c(c(C(=O)NCc3ccccc3-c3nccc(N)n3)n(-c3ccc(OC4CC4)cc3)c2=O)CN1C(=O)c1ccc(Br)c(C(F)(F)F)c1 (single isomer, unassigned) [Compound 29a]
EC50 [1]: < 50 nM

CC1Cn2c(c(C(=O)NCc3ccccc3-c3nccc(N)n3)n(-c3ccc(OC4CC4)cc3)c2=O)CN1C(=O)c1ccc(Br)c(C(F)(F)F)c1 (single isomer, unassigned) [Compound 29b]
EC50: < 50 nM

CC1Cn2c(c(C(=O)NCc3ccccc3-c3nccc(N)n3)n(-c3ccc(OC4CC4)cc3)c2=O)CN1C(=O)c1ccc(Br)c(Cl)c1 (single isomer, unassigned) [Compound 30a]
EC50 [1]: 50 to 500 nM

CC1Cn2c(c(C(=O)NCc3ccccc3-c3nccc(N)n3)n(-c3ccc(OC4CC4)cc3)c2=O)CN1C(=O)c1ccc(Br)c(Cl)c1 (single isomer, unassigned) [Compound 30b]
EC50: < 50 nM

CC1Cn2c(c(C(=O)NCc3c(F)cccc3-c3nccc(N)n3)n(-c3ccc(OC4CC4)cc3)c2=O)CN1C(=O)c1ccc(Br)c(Cl)c1 (single isomer, unassigned) [Compound 31a]
EC50 [1]: 50 to 500 nM

CC1Cn2c(c(C(=O)NCc3c(F)cccc3-c3nccc(N)n3)n(-c3ccc(OC4CC4)cc3)c2=O)CN1C(=O)c1ccc(Br)c(Cl)c1 (single isomer, unassigned) [Compound 31b]
EC50: < 50 nM

CC1Cn2c(c(C(=O)NCc3c(F)cccc3-c3nccc(N)n3)n(-c3ccc(OC4CC4)cc3)c2=O)CN1C(=O)c1ccc(Br)c(C(F)(F)F)c1 (single isomer, unassigned) [Compound 32a]
EC50 [1]: < 50 nM

CC1Cn2c(c(C(=O)NCc3c(F)cccc3-c3nccc(N)n3)n(-c3ccc(OC4CC4)cc3)c2=O)CN1C(=O)c1ccc(Br)c(C(F)(F)F)c1 (single isomer, unassigned) [Compound 32b]
EC50: < 50 nM

Cc1nnc(-c2cccc(F)c2CNC(=O)c2c3n(c(=O)n2-c2ccc(OC4CC4)cc2)CC(C)N(C(=O)c2ccc(Br)c(C(F)(F)F)c2)C3)o1 (single isomer, unassigned) [Compound 33a]
EC50 [1]: 50 to 500 nM
